Laboratory results published in patent US20100317687A1, “2-BENZOYLIMIDAZO[1,2-a]PYRIDINE DERIVATIVES, PREPARATION THEREOF AND THERAPEUTIC USE THEREOF” (sanofi-aventis, priority 2008, published 2010).

Target: T1, mouse Nurr1 receptor (Mus musculus, UniProt Q06219)
T1 construct: a cell line (N2A) endogenously expressing the mouse Nurr1 receptor; host or cells: Neuro-2A (N2A) mouse neuroblastoma cells stably transfected with 8NBRE-luciferase
Assay: In vitro activity on N2A cells (NBRE-luciferase reporter)
Assay type: cell-based
Settings: N2A-8NBRE cells, 24 hours incubation
Protocol: The activity of the compounds according to the invention was evaluated on a cell line (N2A) endogenously expressing the mouse Nurr1 receptor and stably transfected with the NOT binding response element (NBRE) coupled to the luciferase reporter gene. The EC50 values are between 0.01 and 1000 nM. The tests were carried out according to the procedure described below.
The Neuro-2A cell line comes from a standard commercial source (ATCC). The Neuro-2A clone was obtained from a spontaneous tumour originating from a mouse A albino strain produced by R. J Klebe et al. This Neuro-2A line is subsequently stably transfected with 8NBRE-luciferase. The N2A-8NBRE cells are cultured at a confluence in 75 cm^2 culture flasks containing DMEM supplemented with 10% of foetal calf serum, 4.5 g/l of glucose and 0.4 mg/ml of geneticin. After one week of culture, the cells are recovered with 0.25% trypsin for 30 seconds, and then resuspended in DMEM without phenol red, containing 4.5 g/l of glucose and 10% of Hyclone defatted serum, and deposited in white, transparent-bottom, 96-well plates. The cells are deposited in a proportion of 60 000 per well in 75 μl for 24 hours before the addition of the products. The products are applied in 25 μl and incubated for a further 24 hours. On the day of the measurement, an equivalent volume (100 μl) of Steadylite, is added to each well, followed by a waiting period of 30 minutes in order to obtain complete lysis of the cells and maximum production of the signal. The plates are then measured in a microplate luminescence counter after having been sealed with an adhesive film. The products are prepared in the form of a stock solution at 10^−2 M, and then diluted in 100% of DMSO. Each product concentration is diluted beforehand in culture medium before incubation with the cells thus containing a final concentration of 0.625% of DMSO.

T1 sequence (Q06219 whole entry): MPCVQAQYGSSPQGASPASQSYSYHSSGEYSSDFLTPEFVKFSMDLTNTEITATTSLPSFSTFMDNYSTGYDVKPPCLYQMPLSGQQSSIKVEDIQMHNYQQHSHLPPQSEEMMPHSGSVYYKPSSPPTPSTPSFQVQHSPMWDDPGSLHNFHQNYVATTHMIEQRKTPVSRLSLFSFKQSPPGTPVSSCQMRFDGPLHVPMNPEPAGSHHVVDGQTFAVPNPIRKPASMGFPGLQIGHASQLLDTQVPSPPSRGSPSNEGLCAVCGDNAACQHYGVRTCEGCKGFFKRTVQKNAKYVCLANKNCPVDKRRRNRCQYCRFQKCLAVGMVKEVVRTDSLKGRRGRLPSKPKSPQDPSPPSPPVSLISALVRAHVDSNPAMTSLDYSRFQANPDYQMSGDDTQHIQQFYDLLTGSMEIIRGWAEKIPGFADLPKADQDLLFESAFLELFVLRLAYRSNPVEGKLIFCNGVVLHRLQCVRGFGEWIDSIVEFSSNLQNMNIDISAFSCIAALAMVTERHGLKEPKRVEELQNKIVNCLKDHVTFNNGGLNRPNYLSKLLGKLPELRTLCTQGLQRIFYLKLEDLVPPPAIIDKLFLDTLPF

EC50	SMILES
0.5 nM	O=C(c1ccccc1)c1cn2cc(-c3cn[nH]c3)ccc2n1 [Compound 4, Phenyl[6-(1H-pyrazol-4-yl)imidazo[1,2-a]pyridin-2-yl]methanone]
0.7 nM	Nc1cccc(-c2ccc3nc(C(=O)c4ccccc4)cn3c2)n1 [Compound 1, [6-(6-Aminopyridin-2-yl)imidazo[1,2-a]pyridin-2-yl](phenyl)-methanone]
0.5 nM	O=C(c1ccccc1)c1cn2cc(-c3cccnc3)ccc2n1 [Compound 7, phenyl[(6-pyridin-3-yl)imidazo[1,2-a]pyridin-2-yl]methanone]
